Source: the NIST ThermoML archive (doi:10.1016/j.tca.2009.07.002)

Assay: xn = mol fraction of the nth substance listed
Conditions: 101 kPa, Liquid, Vibrating tube method

NC1CCCCC1 [cyclohexylamine] + CCCCCCC
mass density [kg/m3]
Conditions	288.15 K	293.15 K	298.15 K	303.15 K	308.15 K	313.15 K	318.15 K	323.15 K
x1 = 0.0501	694.788	690.573	686.334	682.072	677.784	673.467	669.12	664.739
x1 = 0.1002	701.818	697.601	693.36	689.097	684.805	680.49	676.146	671.776
x1 = 0.1501	709.079	704.855	700.609	696.341	692.046	687.73	683.386	679.015
x1 = 0.2305	721.227	716.988	712.729	708.452	704.15	699.827	695.479	691.106
x1 = 0.3004	732.296	728.038	723.765	719.477	715.17	710.839	706.489	702.117
x1 = 0.401	749.067	744.783	740.484	736.173	731.847	727.504	723.139	718.756
x1 = 0.4497	757.546	753.244	748.933	744.614	740.28	735.927	731.554	727.16
x1 = 0.5597	777.524	773.195	768.854	764.509	760.149	755.773	751.384	746.981
x1 = 0.6001	785.155	780.814	776.463	772.102	767.732	763.352	758.953	754.544
x1 = 0.6498	794.839	790.479	786.113	781.744	777.362	772.968	768.563	764.139
x1 = 0.6994	804.717	800.344	795.962	791.575	787.181	782.776	778.36	773.935
x1 = 0.7999	825.611	821.199	816.783	812.36	807.934	803.499	799.055	794.605
x1 = 0.8992	847.523	843.061	838.598	834.132	829.662	825.189	820.71	816.229
x1 = 1	871.29	866.747	862.207	857.671	853.138	848.607	844.073	839.547

NC1CCCCC1 [cyclohexylamine] + CCCCO
mass density [kg/m3]
Conditions	288.15 K	293.15 K	298.15 K	303.15 K	308.15 K	313.15 K	318.15 K	323.15 K
x2 = 0	871.29	866.747	862.207	857.671	853.138	848.607	844.073	839.547
x2 = 0.0499	870.402	865.907	861.409	856.914	852.415	847.912	843.406	838.847
x2 = 0.1019	869.284	864.828	860.372	855.914	851.45	846.979	842.499	838.018
x2 = 0.1499	868.221	863.8	859.375	854.945	850.509	846.063	841.605	837.144
x2 = 0.1997	867.037	862.648	858.251	853.85	849.438	845.013	840.578	836.136
x2 = 0.2995	864.139	859.8	855.453	851.095	846.722	842.337	837.935	833.516
x2 = 0.4	860.506	856.206	851.899	847.581	843.244	838.892	834.521	830.136
x2 = 0.4994	855.958	851.708	847.444	843.167	838.874	834.561	830.229	825.872
x2 = 0.6006	850.147	845.964	841.767	837.554	833.322	829.067	824.783	820.478
x2 = 0.6977	843.134	839.036	834.924	830.791	826.637	822.458	818.247	814.01
x2 = 0.7497	838.964	834.921	830.861	826.78	822.671	818.541	814.376	810.181
x2 = 0.7984	834.505	830.511	826.498	822.464	818.404	814.315	810.191	806.034
x2 = 0.85	829.604	825.664	821.703	817.72	813.708	809.66	805.587	801.472
x2 = 0.8993	824.498	820.606	816.697	812.762	808.799	804.804	800.769	796.696
x2 = 0.9508	819.064	815.223	811.359	807.471	803.552	799.601	795.606	791.569
